Test results reported in patent US20180207264A1, “PORCINE IMMUNE MODULATION MODEL” (Government of the United States as Represented by the …, priority 2017, published 2018).

What was measured:
[1] = test system: MCF-7 breast cancer cells; assay: Cell death and cell growth in hormone dependent ER/PR positive breast cancer cell cultures; type: cell-based; conditions: 5 nM E2; for MCF7 Cell Death Amount: 25 μM β-AED, 25 μM β-AET, PEG 300 with LIPOFECTAMINE vehicle
Protocol: (§1) Hormone dependent, noninvasive, epithelial phenotype (ER/PR positive MCF-7 breast cancer cells) and hormone independent, invasive, mesenchymal phenotype (ER/PR negative MDA-MB-231 breast cancer cell) cell suspensions were acquired and prepared in complete medium (DMEM/F12, 10% FBS, 1% penicillin/streptomycin (Gibco)). Cellular concentration was adjusted to 2×10^5 cells/mL.
(§2) Androstene hormone solutions according to embodiments of the present invention were prepared from a first solution and a second solution. For the first solution, 3.0 mg of β-AED or 3-AET was added to warm PEG 300 to prepare 50 mM stock. For the second solution, 10 μL of LIPOFECTAMINE (3:1 DOSPA:DOPE) was introduced to 100 μL of PEG 300, mixed, and incubated in a water bath at 42° C. for 30 min. The first and second solutions were then mixed in a sonicator water bath at 42° C. for 1 hr. The final concentration was 50 mM β-AED (or AET, as used).
(§3) A β-estradiol solution was also prepared by adding 2.7 mg of β-estradiol to 200 μL warmed PEG 300 with LIPOFECTAMINE and then further diluted 1:1000 with PEG-300. The final concentration was 50 μM.
A diluted β-AED (or 3-AET) solution was prepared with complete medium at a final concentration of 50 μM (1:1000 dilute of 50 mM). Likewise, a diluted β-E2 solution was prepared with complete medium at a final concentration of 10 nM (1:5000 dilute of 50 μM).
Using a 24-well plate, mixtures of 0.5 mL of cells per well with 0.5 mL of medium diluted hormone vehicle. Cell cultures were maintained at 90% humidity, 7% CO2, and 37° C.

[2] = test system: MDA-MB-231 breast cancer cell; assay: Cell death in hormone independent ER/PR negative breast cancer cell cultures; type: cell-based; conditions: 25 μM β-AED, 25 μM β-AET, 5 nM E2; PEG 300 with LIPOFECTAMINE vehicle
Protocol: as §1, §2, §3
A diluted β-AED (or 3-AET) solution was prepared with complete medium at a final concentration of 50 μM (1:1000 dilute of 50 mM). Likewise, a diluted β-E2 solution was prepared with complete medium at a final concentration of 10 nM (1:5000 dilute of 50 μM). […]

[3] = test system: 293T cells; assay: Biological function (phenotype, mobile cells) of androstene hormone treatments in 293T cells; type: cell-based, human; conditions: androstene hormone 25 μM
Protocol: A non-toxic vehicle for administration of androstene hormones according to embodiments of the present invention was prepared from a first solution and a second solution. The first solution, comprising liposomal formulation, was placed in PEG 300 to a concentration of 5% and heated in a sonicating water bath to about 45° C. The second solution, comprising a selected hormone (one or more of 5Δ-androsten-3β, 17α-diol, 5Δ-androsten-3β, 17β-diol, or 5Δ-androsten-3β,7β,17β-triol), was placed in PEG 300 and heated in a sonicating water bath to about 45° C. The first and second solutions were then combine and stirred until dissolved.
Biological function was tested in 293T cells, which is a human embryonic cell line transformed with Large T antigen […] SV40. This hypotriploid (polyploid) cell line is particularly useful in such transformation studies and has very distinct phenotypes when grown. All androstene hormone treatment applications were at concentrations of 25 μM.

[4] = grown for 5 days, 25 μM androstene hormone, PEG 300 with 5% LIPOFECTAMINE

Row | Structure (SMILES) | MCF7 Cell Death Amount [1] | MDA-MB-231 Cell Death Amount [2] | Phenotype of 293T cells (cell islands, mobile cells, cell processes) ([3]; vehicle PEG 300) | Phenotype of 293T cells (cell islands, mobile cells, cell processes) ([3]; vehicle PEG 300 and LIPOFECTAMINE) | Cell growth / cell density of MCF-7 cells compared with vehicle (FIG. 14) [1, 4] | Particles / cell bodies produced by MCF-7 cells in response to treatment [1, 4]
1 | C[C@]12CC[C@H]3[C@@H]([C@@H](O)C=C4C[C@@H](O)CC[C@@]43C)[C@@H]1CC[C@@H]2O [β-AET, 5-androstene-3β,7β, 17β-triol] | Not observed | Not observed | – | – | – | –
2 | C[C@]12CC[C@H]3[C@@H](CC=C4C[C@@H](O)CC[C@@]43C)[C@@H]1CC[C@@H]2O [β-AED, androst-5-ene-3β, 17β-diol] | Not observed | Not observed | cell islands are larger and there is a significant reduction in mobile cells | drastic decrease in, or morphological change, in mobile elements | not as heath and there are areas of decreased density | small particles
